Measurements from patent publication US7138361B2, “Herbicidal heterocycles” (E. I. du Pont de Nemours and Company, priority 2000, dated 2006).

Columns and labels:
Type in all cases: in vivo
[1] = test system: morningglory (Ipomoea hederacea); assay: Test C preemergence; details: for Plant response rating, Morningglory: scale 0 to 100, 0 no effect, 100 complete control
Outline: (§1)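 Pre- and postemergence treatments used a non-phytotoxic solvent/surfactant formulation; post-treated plants measured 2 to 18 cm. Greenhouse hold 12–14 d; % control estimated visually relative to controls.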

Sunflower [2] = assay: Test C preemergence; details: Rate 125 g/ha; scale 0 to 100, 0 no effect, 100 complete control
[3] = test system: yellow nutsedge (Cyperus esculentus); assay: Test C preemergence; details: for Plant response rating, Nutsedge: scale 0 to 100, 0 no effect, 100 complete control
Outline: as §1

[4] = test system: lambsquarters (Chenopodium album); assay: Test C preemergence; details: for Plant response rating, Lambsquarters: scale 0 to 100, 0 no effect, 100 complete control
Outline: as §1

[5] = test system: giant foxtail (Setaria faberii); assay: Test C preemergence; details: for Plant response rating, Foxtail, Giant: scale 0 to 100, 0 no effect, 100 complete control; for Plant response rating (0 to 100), Foxtail, Giant: preemergence, visual evaluation after 12 to 14 days
Outline: as §1

[6] = test system: pigweed (Amaranthus retroflexus); assay: Test C preemergence; details: for Plant response rating, Pigweed: scale 0 to 100, 0 no effect, 100 complete control
Outline: as §1

[7] = test system: bermudagrass (Cynodon dactylon); assay: Test C preemergence; details: for Plant response rating, Bermudagrass: scale 0 to 100, 0 no effect, 100 complete control; for Plant response rating (0 to 100 where 0 is no effect and 100 is complete control), Bermudagrass: preemergence, visual evaluation after 12 to 14 days
Outline: as §1

[8] = test system: johnsongrass (Sorghum halepense); assay: Test C preemergence; details: for Plant response rating, Johnsongrass: scale 0 to 100, 0 no effect, 100 complete control; for Plant response rating (0 to 100), Johnsongrass: preemergence, visual evaluation after 12 to 14 days
Outline: as §1

corn (Zea mays) = assay: Test C preemergence; details: for Plant response rating, Corn: scale 0 to 100, 0 no effect, 100 complete control; for Plant response rating (0 to 100), Corn: preemergence, visual evaluation after 12 to 14 days
Outline: as §1

[9] = test system: velvetleaf (Abutilon theophrasti); assay: Test C preemergence; details: for Plant response rating, Velvetleaf: scale 0 to 100, 0 no effect, 100 complete control
Outline: as §1

[10] = test system: crabgrass (Digitaria sanguinalis); assay: Test C preemergence; details: for Plant response rating, Crabgrass: scale 0 to 100, 0 no effect, 100 complete control; for Plant response rating (0 to 100), Crabgrass: preemergence, visual evaluation after 12 to 14 days
Outline: as §1

soybean (Glycine max) = assay: Test C preemergence; details: for Plant response rating, Soybean: scale 0 to 100, 0 no effect, 100 complete control
Outline: as §1

[11] = test system: cocklebur (Xanthium strumarium); assay: Test C preemergence; details: for Plant response rating, Cocklebur: scale 0 to 100, 0 no effect, 100 complete control; for Plant response rating (0 to 100), Cocklebur: preemergence, visual evaluation after 12 to 14 days
Outline: as §1

[12] = test system: goosegrass (Eleusine indica); assay: Test C preemergence; details: for Plant response rating, Goosegrass: scale 0 to 100, 0 no effect, 100 complete control; for Plant response rating (0 to 100), Goosegrass: preemergence, visual evaluation after 12 to 14 days
Outline: as §1

Nightshade = assay: Test C preemergence; details: scale 0 to 100, 0 no effect, 100 complete control
kochia (Kochia scoparia) = assay: Test C preemergence; details: for Plant response rating, Kochia: scale 0 to 100, 0 no effect, 100 complete control
Outline: as §1

[13] = test system: woolly cupgrass (Eriochloa villosa); assay: Test C preemergence; details: for Plant response rating, Cupgrass, Woolly: scale 0 to 100, 0 no effect, 100 complete control; for Plant response rating (0 to 100), Cupgrass, Woolly: preemergence, visual evaluation after 12 to 14 days
Outline: as §1

[14] = test system: Surinam grass (Brachiaria decumbens); assay: Test C preemergence; details: for Plant response rating, Surinam grass: scale 0 to 100, 0 no effect, 100 complete control; for Plant response rating (0 to 100), Surinam grass: preemergence, visual evaluation after 12 to 14 days
Outline: as §1

[15] = test system: barnyardgrass (Echinochloa crus-galli); assay: Test C flooded paddy test; details: for Barnyardgrass plant response rating: Flooded Paddy, scale 0 to 100, 0 no effect, 100 complete control
Outline: (§2)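 Greenhouse-maintained for 12 to 14 days after treatment, the paddy plants (2-leaf stage at application) were scored visually against controls. A score of 0 denotes no effect and a score of 100 denotes complete control.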

[16] = test system: smallflower flatsedge (Cyperus difformis); assay: Test C flooded paddy test; details: for Flatsedge plant response rating: Flooded Paddy, scale 0 to 100, 0 no effect, 100 complete control; for Plant response rating, Flatsedge: flooded paddy test, scale 0 to 100 (0 no effect, 100 complete control)
Outline: as §2

[17] = test system: duck salad (Heteranthera limosa); assay: Test C flooded paddy test; details: for Plant response rating, Ducksalad: flooded paddy test, scale 0 to 100 (0 no effect, 100 complete control)
Outline: as §2

Sunflower [18] = assay: Test C preemergence; details: Rate 500 g/ha, visual evaluation after 12 to 14 days
[19] = preemergence, Rate 500 g/ha, visual evaluation after 12 to 14 days

## CC(C)(C)c1ccn(C2CCN(c3ccc(F)c(Br)c3)C2=O)n1 (stereo not drawn) [Compound 75]
[1]; Rate 62 g/ha
  Plant response rating, Morningglory: 0
[1]; Rate 125 g/ha
  Plant response rating, Morningglory: 0
[1]; [19]
  Plant response rating (0 to 100), Morningglory: 0
[1]; preemergence, Rate 250 g/ha
  Plant response rating, Morningglory: 0
Sunflower [2]
  Plant response rating, Sunflower: 0
[3]; Rate 62 g/ha
  Plant response rating, Nutsedge: 0
[3]; Rate 125 g/ha
  Plant response rating, Nutsedge: 0
[3]; [19]
  Plant response rating (0 to 100), Nutsedge: 50
[3]; preemergence, Rate 250 g/ha
  Plant response rating, Nutsedge: 50
[4]; Rate 62 g/ha
  Plant response rating, Lambsquarters: 100
[4]; Rate 125 g/ha
  Plant response rating, Lambsquarters: 100
[4]; [19]
  Plant response rating (0 to 100), Lambsquarters: 100
[4]; preemergence, Rate 250 g/ha
  Plant response rating, Lambsquarters: 100
[5]; Rate 62 g/ha
  Plant response rating, Foxtail, Giant: 90
[5]; Rate 125 g/ha
  Plant response rating, Foxtail, Giant: 100
[5]; Rate 250 g/ha
  Plant response rating (0 to 100), Foxtail, Giant: 70
[5]; Rate 500 g/ha
  Plant response rating (0 to 100), Foxtail, Giant: 100
[6]; Rate 125 g/ha
  Plant response rating, Pigweed: 100
[6]; [19]
  Plant response rating (0 to 100), Pigweed: 100
[6]; preemergence, Rate 250 g/ha
  Plant response rating, Pigweed: 100
[7]; Rate 62 g/ha
  Plant response rating, Bermudagrass: 100
[7]; Rate 125 g/ha
  Plant response rating, Bermudagrass: 100
[7]; Rate 250 g/ha
  Plant response rating (0 to 100 where 0 is no effect and 100 is complete control), Bermudagrass: 100
[7]; Rate 500 g/ha
  Plant response rating (0 to 100 where 0 is no effect and 100 is complete control), Bermudagrass: 100
[8]; Rate 62 g/ha
  Plant response rating, Johnsongrass: 0
[8]; Rate 125 g/ha
  Plant response rating, Johnsongrass: 0
[8]; Rate 250 g/ha
  Plant response rating (0 to 100), Johnsongrass: 30
[8]; Rate 500 g/ha
  Plant response rating (0 to 100), Johnsongrass: 30
Corn (Zea mays); Rate 62 g/ha
  Plant response rating, Corn: 0
Corn (Zea mays); Rate 125 g/ha
  Plant response rating, Corn: 0
Corn (Zea mays); Rate 250 g/ha
  Plant response rating (0 to 100), Corn: 0
Corn (Zea mays); Rate 500 g/ha
  Plant response rating (0 to 100), Corn: 0
[9]; Rate 125 g/ha
  Plant response rating, Velvetleaf: 0
[9]; [19]
  Plant response rating (0 to 100), Velvetleaf: 0
[9]; preemergence, Rate 250 g/ha
  Plant response rating, Velvetleaf: 0
[10]; Rate 62 g/ha
  Plant response rating, Crabgrass: 90
[10]; Rate 125 g/ha
  Plant response rating, Crabgrass: 100
[10]; Rate 250 g/ha
  Plant response rating (0 to 100), Crabgrass: 100
[10]; Rate 500 g/ha
  Plant response rating (0 to 100), Crabgrass: 100
Soybean (Glycine max); Rate 125 g/ha
  Plant response rating, Soybean: 0
Soybean (Glycine max); [19]
  Plant response rating (0 to 100), Soybean: 50
Soybean (Glycine max); preemergence, Rate 250 g/ha
  Plant response rating, Soybean: 0
[11]; Rate 62 g/ha
  Plant response rating, Cocklebur: 0
[11]; Rate 125 g/ha
  Plant response rating, Cocklebur: 0
[11]; Rate 250 g/ha
  Plant response rating (0 to 100), Cocklebur: 0
[11]; Rate 500 g/ha
  Plant response rating (0 to 100), Cocklebur: 0
[12]; Rate 62 g/ha
  Plant response rating, Goosegrass: 90
[12]; Rate 125 g/ha
  Plant response rating, Goosegrass: 100
[12]; Rate 250 g/ha
  Plant response rating (0 to 100), Goosegrass: 100
[12]; Rate 500 g/ha
  Plant response rating (0 to 100), Goosegrass: 100
Nightshade; Rate 62 g/ha
  Plant response rating, Nightshade: 0
Nightshade; Rate 125 g/ha
  Plant response rating, Nightshade: 0
Nightshade; Rate 250 g/ha
  Plant response rating, Nightshade: 0
Kochia (Kochia scoparia); Rate 62 g/ha
  Plant response rating, Kochia: 100
Kochia (Kochia scoparia); Rate 125 g/ha
  Plant response rating, Kochia: 100
Kochia (Kochia scoparia); preemergence, Rate 250 g/ha, visual evaluation after 12 to 14 days
  Plant response rating (0 to 100), Kochia: 100
[13]; Rate 62 g/ha
  Plant response rating, Cupgrass, Woolly: 60
[13]; Rate 125 g/ha
  Plant response rating, Cupgrass, Woolly: 80
[13]; Rate 250 g/ha
  Plant response rating (0 to 100), Cupgrass, Woolly: 100
[13]; Rate 500 g/ha
  Plant response rating (0 to 100), Cupgrass, Woolly: 100
[14]; Rate 62 g/ha
  Plant response rating, Surinam grass: 10
[14]; Rate 125 g/ha
  Plant response rating, Surinam grass: 40
[14]; Rate 250 g/ha
  Plant response rating (0 to 100), Surinam grass: 60
[14]; Rate 500 g/ha
  Plant response rating (0 to 100), Surinam grass: 60
[15]; Rate 250 g/ha
  Barnyardgrass plant response rating: 80
[15]; Rate 500 g/ha
  Barnyardgrass plant response rating: 100
[15]; flooded paddy test, Rate 62 g/ha, scale 0 to 100 (0 no effect, 100 complete control)
  Plant response rating, Barnyardgrass: 70
[16]; Rate 250 g/ha
  Flatsedge plant response rating: 100
[16]; Rate 500 g/ha
  Flatsedge plant response rating: 100
[16]; Rate 62 g/ha
  Plant response rating, Flatsedge: 90
[16]; Rate 125 g/ha
  Plant response rating, Flatsedge: 90
[17]; Flooded Paddy, Rate 500 g/ha, scale 0 to 100, 0 no effect, 100 complete control
  Ducksalad plant response rating: 90
[17]; Rate 62 g/ha
  Plant response rating, Ducksalad: 70
[17]; Rate 125 g/ha
  Plant response rating, Ducksalad: 80
Sunflower [18]
  Plant response rating (0 to 100), Sunflower: 50
